Experimental findings from PubChem BioAssay (NCI) are described below.

Broadly, the TGI is the concentration at which net growth stops. A word on the GI50: it is the concentration giving 50% growth inhibition.

Holding throughout (experiment): DTP human tumour cell line panel, 48 h
In assay [1] the test system is ACHN renal.
The test system of assay [2] is CAKI-1 renal.
Assay [3] concerns COLO 205 colon.
The test system of assay [4] is EKVX NSCLC.
Assay [5] has as its system HL-60(TB) leukemia.
Assay [6] deals with KM12 colon.
The test system of assay [7] is MOLT-4 leukemia.
Assay [8] deals with OVCAR-4 ovarian.
Assay [9] has as its system RXF 393 renal.
The subject of assay [10] is UO-31 renal.

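Where inhibition never reached the appropriate level, the endpoint shown equals the highest concentration tested. Otherwise, values were interpolated linearly from a five-concentration, 48-hour dose response in 96-well plates. At the GI50, growth is halved. TGI marks complete inhibition of growth.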

Take `Cc1ccc(-c2nnc(-c3ccc4ccccc4c3)o2)cc1`: the TGI in assay [1] is above 100 µM; in assay [2] it was above 86.8 µM; in assay [3] it was above 100 µM; in assay [4] it was above 100 µM; in assay [5], above 21.9 µM; in assay [6], above 100 µM. The TGI in assay [7] is above 26.6 µM; in assay [8], above 100 µM; in assay [9], 55.1 µM; in assay [10] it was above 100 µM.

As for `CCCCCCCC(=O)SCC/C=C/[C@@H]1CC(=O)NCc2cccc(n2)C2=N[C@@](C)(CS2)C(=O)N[C@@H](C(C)C)C(=O)N1`, the GI50 in [1] is 2.71 µM; in assay [2], 16.9 µM; in assay [3] it was 0.468 µM; in assay [4], 1.75 µM; in [5], 0.509 µM; in [6], 1.21 µM. For the same compound, the GI50 in assay [7] is 1.01 µM; in assay [8], 0.766 µM; in assay [9], 2.14 µM; in assay [10] it was 4.54 µM. For the same compound, the TGI in assay [1] is above 33.3 µM; in assay [2], above 33.3 µM; in assay [3], 1.62 µM; in [4], above 33.3 µM; in assay [5] it was above 33.3 µM; in [6], above 33.3 µM. For the same compound, the TGI in [7] was above 33.3 µM; in assay [8], above 33.3 µM; in [9] it was 19.9 µM; in assay [10], above 33.3 µM.

As to `COc1ccc(/C=C\c2cc(OC)c3c(c2)OCO3)c(O)c1O`, the TGI in assay [1] was 32.7 µM; in assay [2], 20.5 µM; in assay [3] it was 45.1 µM; in [4], 40.4 µM; in assay [5] it was 7.72 µM; in assay [6], 21.4 µM. The TGI in assay [7] is 47.5 µM; in [8] it was 20.6 µM; in assay [9], 11.7 µM; in assay [10], 12 µM.

With `CSc1ccccc1C#C/C=C\C#Cc1ccccc1N1CCCC1=O`, the GI50 in assay [1] was above 22.9 µM; in [2] it was above 10.3 µM; in assay [4], above 10.3 µM; in [5] it was 2.43 µM; in assay [8] it was above 22.1 µM; in assay [9], 2.91 µM. Also, the TGI in [1] is above 50 µM; in [2] it was above 50 µM; in assay [3] it was above 12.6 µM; in assay [4] it was above 50 µM; in assay [6], above 17.6 µM; in assay [7], above 17.6 µM. In addition, the TGI in [8] was above 50 µM; in assay [9], 25.8 µM; in assay [10], above 50 µM.

Regarding `O=C(O)C(Cc1ccccc1)N1C(=O)N/C(=C\c2ccc(F)cc2)C1=O` (configuration not stated), the TGI in assay [1], in assay [2], in assay [3], in assay [4], in [5] and in assay [6] was above 100 µM in each case. For the same compound, the TGI in [7], in assay [8], in assay [9] and in assay [10] was above 100 µM throughout.

`COc1ccc(NC(=O)c2cc(OC)cc(OC)c2)cc1`: the TGI in assay [1] was above 100 µM; in assay [2], above 100 µM; in assay [3], above 42.8 µM; in assay [4], above 100 µM; in assay [5], 39.1 µM; in assay [6], above 100 µM. Moreover, the TGI in [7] was above 100 µM; in [8], above 100 µM; in [9] it was 55.9 µM; in assay [10], above 100 µM.

With `O=C(CCl)N1c2ccccc2Oc2ccc3ccccc3c21`, the GI50 is 1.37 µM in assay [1]; 1.02 µM in assay [2]; 0.894 µM in assay [3]; 2.2 µM in assay [4]; 1.45 µM in [5]; 1.8 µM in assay [6]. Further, the GI50 in [7] is 0.339 µM; in assay [8], 1.44 µM; in assay [9], 1.73 µM; in assay [10] it was 1.17 µM. Further, the TGI turned out to be 2.82 µM in assay [1]; 3.8 µM in assay [2]; 2.35 µM in [3]; 5.9 µM in assay [4]; 4.86 µM in assay [5]; 3.3 µM in assay [6]. The TGI came to 1.95 µM in [7], 3.34 µM in assay [8], 3.17 µM in assay [9] and 2.53 µM in assay [10].

In the case of `O=C1C2=C(SCCS2)C(=O)c2ccccc21`, the TGI in assay [1] amounted to 3.05 µM; in assay [2], 3.32 µM; in [3] it was 2.96 µM; in assay [4], 2.69 µM; in assay [5], 6.77 µM; in assay [6] it was 3.18 µM. Besides, the TGI in [7] is 27.7 µM; in [8] it was 3.01 µM; in assay [9], 3.56 µM; in assay [10] it was 3.37 µM.

For `O=C1c2cccnc2-c2nc(-c3ccccc3[N+](=O)[O-])cc3c2c1nc1ccccc13`, the GI50 in [1] was 9.03 µM; in assay [2], 18 µM; in assay [3] it was 24.4 µM; in [4], 31.6 µM; in [5] it was above 100 µM; in [6] it was 14.1 µM. Further, the GI50 in [8] was 6.63 µM; in assay [9], 20.7 µM; in assay [10] it was 12.5 µM. For the same compound, the TGI in assay [1] was above 92.2 µM; in [2], 43.3 µM; in assay [3], above 62.4 µM; in assay [4], above 74.3 µM; in assay [5] it was above 100 µM; in assay [6], above 55 µM. The TGI is above 100 µM in [7], above 70.4 µM in assay [8], 98.3 µM in [9] and 32.5 µM in [10].

For `Cc1cc2nc(C(Cl)Cl)nc(-c3ccc(Cl)cc3)n2n1`, the GI50 was 0.386 µM in assay [1]; 0.798 µM in assay [2]; 0.603 µM in [3]; 1.6 µM in assay [4]; 1.11 µM in assay [5]; 0.414 µM in assay [6]. Besides, the GI50 in assay [7] is 1.01 µM; in [8], 1.06 µM; in [9], 0.764 µM; in assay [10], 1.42 µM. Also, the TGI in assay [1] is 2.24 µM; in assay [2], 4.11 µM; in assay [3] it was 2.67 µM; in [4], 4.3 µM; in assay [6], 1.74 µM; in assay [7], above 100 µM. Also, the TGI in assay [8] was found to be 4.38 µM; in assay [9], 2.27 µM; in assay [10], 3.92 µM.

On to `Cc1cc(=O)n2[nH]c(-c3ccc(C(C)(C)C)cc3)cc2n1`, for which the GI50 in assay [1] is 5.65 µM; in [2], 2.6 µM; in assay [3] it was 11.3 µM; in assay [4], 3.88 µM; in [5], 6.9 µM; in assay [6], 7.04 µM. Besides, the GI50 in assay [7] is 6.56 µM; in assay [8], 12.7 µM; in [9], 4.59 µM; in [10] it was 3.17 µM. Also, the TGI is above 100 µM in [1]; 32.7 µM in assay [2]; above 100 µM in assay [3]; 59.1 µM in assay [4]; 93.8 µM in assay [5]; 53.9 µM in assay [6]. For the same compound, the TGI in assay [7] is above 100 µM; in [8], above 100 µM; in [9], 28.2 µM; in assay [10] it was above 100 µM.

On to `O=C(Nc1ccc(F)cc1F)c1cc(I)ccc1O`, for which the GI50 was 2.5 µM in assay [1]; 1.92 µM in [2]; 5.95 µM in assay [3]; 2.19 µM in [4]; 3.08 µM in assay [5]; 2.93 µM in assay [6]. Also, the GI50 in assay [7] was 3.15 µM; in assay [8] it was 2.49 µM; in assay [9], 2.5 µM; in assay [10], 1.63 µM. Moreover, the TGI in assay [1] amounted to 7.62 µM; in assay [2], 6.49 µM; in [3], 21.7 µM; in [4], 9.14 µM; in [5], 9.13 µM; in assay [6], 9.53 µM. The TGI in [7] came to 16.3 µM; in assay [9], 7 µM; in [10], 6.11 µM.

Regarding `NS(=O)(=O)c1ccccc1C(=O)N/N=C(\c1nc2ccc([N+](=O)[O-])cc2[nH]c1=O)C(O)c1ccc([N+](=O)[O-])cc1` (configuration not stated), the TGI in assay [1], in [2], in assay [3], in assay [4], in [5] and in assay [6] was above 100 µM throughout. Moreover, the concentration for total growth inhibition (TGI) in [7], in assay [8], in assay [9] and in assay [10] was above 100 µM in each case.

With `COc1cc(/C=C/c2cc(/C=C/c3ccc(O)c(OC)c3)n(C(=O)Nc3ccc(F)cc3)n2)ccc1O`, the GI50 in assay [1] is 0.704 µM; in assay [2], 0.77 µM; in assay [3], 2.09 µM; in assay [4], 3.05 µM; in [5] it was 0.364 µM; in assay [6] it was 0.46 µM. For the same compound, the GI50 is 0.471 µM in [7], 1.36 µM in assay [8], 0.268 µM in assay [9] and 0.587 µM in assay [10]. Moreover, the TGI in [1] came out at 61.2 µM; in assay [2], 49.5 µM; in assay [3] it was 3.7 µM; in assay [4], 43.7 µM; in assay [5] it was 1.93 µM; in assay [6], 9.12 µM. For the same compound, the TGI in [7] was above 22.8 µM; in [8], 7.57 µM; in assay [9] it was 0.994 µM; in assay [10] it was 6.27 µM.

On to `O[C@H]1[C@H]2c3cc4c(cc3CN3CCC(=C[C@@H]1O)[C@H]23)OCO4`, for which the TGI in [1] came out at 7.07 µM; in [2], 4.34 µM; in assay [3], 2.79 µM; in [4] it was 10.8 µM; in [5] it was 6.37 µM; in assay [6], 22.4 µM. The TGI in [7] is 4.65 µM; in assay [8] it was 8.4 µM; in [9], 2.6 µM; in assay [10], 4.77 µM.

As to `Cc1cc(=O)[nH]c2cc3oc4ccccc4c3cc12`, the TGI is above 100 µM in [1]; above 100 µM in [2]; above 100 µM in [3]; above 100 µM in [4]; 59.3 µM in assay [5]; above 100 µM in [6]. In addition, the TGI in assay [7] was above 48.5 µM; in assay [8], above 100 µM; in assay [9], above 100 µM; in assay [10] it was above 100 µM.

As to `CC(C)c1ccc(C(C)C(=O)N(CC2=C(C(C)c3ccccn3)c3ccccc3C2)C(C)C)cc1` (configuration not stated), the GI50 in [1] is 3.22 µM; in assay [2] it was 1.76 µM; in assay [3], 1.75 µM; in assay [4] it was 1.72 µM; in assay [5] it was 2.15 µM; in assay [6], 3.36 µM. Further, the GI50 in assay [7] is 2.46 µM; in assay [8], 3.07 µM; in assay [9], 2.38 µM; in assay [10] it was 1.53 µM. In addition, the TGI in assay [1] was above 100 µM; in [2] it was 6.73 µM; in [3], 3.23 µM; in [4], 8.31 µM; in assay [5], 5.44 µM; in assay [6] it was 12.2 µM. Moreover, the TGI in assay [7] amounted to 13.1 µM; in assay [8] it was 86.7 µM; in assay [9], 14.3 µM; in [10], 7.29 µM.
